{
  "source": "patent US20110190333A1",
  "about": "“DIHYDROTETRABENANZINE FOR THE TREATMENT OF ANXIETY” (Biovail Laboratories International (Barbados) S.R.L., priority 2008, published 2011)",
  "key": {"[1]": {"tested_on": "female hooded-Lister rats", "experiment": "Elevated plus maze, Study 2", "format": "in vivo, rat", "excerpt": "(§1) The elevated plus maze has been widely used as a test for anxiety, as it avoids confounding effects on consummatory responses or sensitivity to shock and it has a certain level of ethological relevance (see Rodgers R J, Cole J C (1994) The elevated plus maze. Pharmacological methods and ethology. In: Cooper, S J, Hendrie C A (eds) Ethology and Psychopharmacology. J. Wiley & Sons Ltd, pp 9-941994).\n(§2) The maze consists of opposite pairs of open and closed arms, and the proportion of exploration carried out on the open arms is taken to be a measure of anxiety. Thus the percentage of open arm entries is increased by known anxiolytic agents and reduced by anxiogenic compounds (Pellow, S, Chopin P, File S E, Briley, M (1985) Validation of open: closed arm entries in an elevated plus maze as a measure of anxiety in the rat. J. Neurosci. Meth. 14: 149-167). In addition, the plus maze may be used to examine the behavioural response to stress, as exposure induces the release of corticosterone File, S E, Pellow, S (1987) Behavioural pharmacology of minor tranquillisers. J. Pharmacol. Exp. Ther. 35: 265-290). The elevated plus maze is based on an approach conflict model and has been validated as a model of anxiety in the rat (Tomkins D M (1990) The behavioural effects of anxiogenic agents in rodents. PhD thesis. Postgraduate studies in Pharmacology. University of Bradford).\n(§3) Two studies were carried out using the elevated plus maze method and the aim of the studies was to assess the ability of a Isomer A for its ability to produce an anxiolytic effect in female hooded-Lister rats.\n(§4) A total of 60 female hooded-Lister rats were used as subjects for study B. Female hooded-Lister rats (Charles River, UK) were obtained as adults and weighed approximately 220-250 g at the start of the study. Subjects were housed in routinely used home cages in groups of 5 per cage. Home cages measured 59×35×24 cm. Rats were maintained under standard laboratory conditions on a 12:12 hour light/dark cycle (lights on at 08:00 h). Experimental procedures were performed in the light phase. Laboratory rooms were temperature controlled at 21±2° C. and humidity remained at 40-50% throughout the study. Rats were tested in the naïve state i.e. they had no exposure to the plus maze prior to testing, although they were handled and received sham injections prior to testing.\nIsomer A (0.1-2.5 mg/kg) and chlordiazepoxide (2.5 mg/kg) were tested. Isomer A was dissolved in water and administered via the oral route (p.o.) 30 minutes prior to testing. Chlordiazepoxide (CDP) was dissolved in saline and administered via the intraperitoneal route (i.p.) 30 min prior to testing.\n(§5) The maze consisted of a +shaped maze, made of Perspex, with two open arms (30×5 cm) and two closed arms (30×5 cm). The maze was arranged so that like arms are opposing. The closed arms were surrounded by matt black walls on all sides (10 cm in height). The maze was elevated to a height of 50 cm, and the surface was covered with a removable rubber matting. The behaviour of drug or vehicle-treated rats was monitored by means of a video camera attached to a TV monitor and video recorder. The rat was placed in the centre square and behaviour monitored over a 10 min test period. […] The maze was cleaned between tests and rats were placed on the maze in a randomised manner in order to minimise the effects of familiar cage mate odours.\n(§6) Behaviour was recorded and the following parameters were analysed from the video tapes using the Hindsight® program for ethological analysis of behaviour: time spent on, and entries into, the open and closed arms, time spent in the centre square and rearing on the open and closed arms.\n(§7) Elevated plus maze data were analysed by a one way ANOVA, followed by Dunnett's t test to assess drug effects on number of entries into the open and closed arms, length of time spent, and number of rears in, open and closed arms, and time spent in the centre square compared with vehicle."}, "[2]": {"tested_on": "female hooded-Lister rats", "experiment": "Elevated plus maze, Study 1", "format": "in vivo, rat", "excerpt": "as §1, §2, §3\nas §4, with “90” for “60”, “1.” for “B.”, “(Harlan,” for “(Charles River,”, “200-220” for “220-250”\nIsomer A (1.0-30.0 mg/kg) and chlordiazepoxide (1.0-5.0 mg/kg) were tested. Isomer A was dissolved in water and administered via the oral route 30 minutes prior to testing. Chlordiazepoxide (CDP) was dissolved in saline and administered via the intraperitoneal route 30 min prior to testing.\nas §5, §6, §7"}, "[3]": {"conditions": "CDP 2.5 mg/kg i.p. and Isomer A 0.1-2.5 mg/kg p.o., 10 min trial, overall ANOVA"}, "[4]": {"conditions": "Isomer A 1.0-10 mg/kg p.o., 10 min trial, ANOVA"}, "[5]": {"conditions": "Isomer A 1.0-10 mg/kg p.o., 10 minute trial, ANOVA"}, "[6]": {"conditions": "Isomer A 1.0-10 mg/kg p.o., 10 minute trial, overall ANOVA"}, "[7]": {"conditions": "CDP 1.0-5.0 mg/kg i.p., 10 min trial, ANOVA"}},
  "data": [
    {"smiles": "COc1cc2c(cc1OC)[C@@H]1C[C@@H](O)[C@H](CC(C)C)CN1CC2", "note": "(single isomer, unassigned) [Isomer A]", "values": [
      {"measurement": "number of rears", "setting": "[1]; [3]", "value": "no overall significant effect"},
      {"measurement": "time spent in the centre square", "setting": "[1]; [3]", "value": "no overall significant effect"},
      {"measurement": "time spent on the closed arms", "setting": "[1]; [3]", "value": "overall significant effect"},
      {"measurement": "time spent on the open arms", "setting": "[1]; [3]", "value": "overall significant effect"},
      {"measurement": "total closed arm entries", "setting": "[1]; [3]", "value": "no overall significant effect"},
      {"measurement": "total open arm entries", "setting": "[1]; [3]", "value": "no overall significant effect"},
      {"measurement": "time in the centre square", "setting": "[1]; Isomer A 0.1 mg/kg p.o., effect failed to achieve statistical significance", "value": "reduced"},
      {"measurement": "time spent on the closed arms", "setting": "[1]; Isomer A 1.0 mg/kg p.o., post-hoc vs vehicle (p<0.05)", "value": "significant reduction"},
      {"measurement": "magnitude of the increase in time spent on the open arms relative to CDP at 2.5 mg/kg", "setting": "[1]; Isomer A 0.1-2.5 mg/kg p.o., Study 2", "value": "comparable"},
      {"measurement": "time spent on the open arms", "setting": "[1]; Isomer A, all doses 0.1-2.5 mg/kg p.o., post-hoc vs vehicle (p<0.05-p<0.001)", "value": "significant increase"},
      {"measurement": "anxiolytic effect on the elevated plus maze", "setting": "[1]; Isomer A, all doses tested 0.1-2.5 mg/kg p.o., Study 2, certain measures of behaviour", "value": "anxiolytic potential"},
      {"measurement": "total open arm entries", "setting": "[2]; Isomer A 1 mg/kg p.o., 10 minute trial", "value": "trend towards an increase"},
      {"measurement": "magnitude of the increase in time spent on the open arms relative to CDP at 2.5 mg/kg", "setting": "[2]; Isomer A 1 mg/kg p.o., Study 1", "value": "comparable"},
      {"measurement": "time spent on the open arms", "setting": "[2]; Isomer A 1 mg/kg p.o., post-hoc vs vehicle (p<0.05)", "value": "significant increase"},
      {"measurement": "overall activity levels on the elevated plus maze", "setting": "[2]; Isomer A 30 mg/kg p.o., animals remained stationary for much of the 10 minute test, behaviour not scored", "value": "markedly reduced"},
      {"measurement": "time spent in the centre square", "setting": "[2]; [4]", "value": "no significant effect"},
      {"measurement": "time spent on the closed arms", "setting": "[2]; [4]", "value": "no significant effect"},
      {"measurement": "number of rears", "setting": "[2]; [5]", "value": "no significant effect"},
      {"measurement": "total closed arm entries", "setting": "[2]; [5]", "value": "no significant effect"},
      {"measurement": "time spent on the open arms", "setting": "[2]; [6]", "value": "overall significant effect"},
      {"measurement": "total open arm entries", "setting": "[2]; [6]", "value": "significant effect"},
      {"measurement": "anxiolytic effect on the elevated plus maze", "setting": "[2]; Isomer A, Study 1, some measures of behaviour", "value": "some anxiolytic potential"},
      {"measurement": "time spent on the closed arms", "setting": "[2]; Isomer A, most marked at 1.0 mg/kg p.o., failed to reach statistical significance", "value": "trend towards a reduction"}
    ]},
    {"smiles": "CNC1=Nc2ccc(Cl)cc2C(c2ccccc2)=[N+]([O-])C1", "note": "[CDP, chlordiazepoxide, reference compound]", "values": [
      {"measurement": "number of rears", "setting": "[2]; [7]", "value": "no significant effect"},
      {"measurement": "time spent on the closed arms", "setting": "[2]; [7]", "value": "no significant effect"},
      {"measurement": "total closed arm entries", "setting": "[2]; CDP 1.0-5.0 mg/kg i.p., 10 minute trial, ANOVA", "value": "no significant effect"}
    ]}
  ]
}
